In general, Kd refers to the equilibrium constant for the complex coming apart. A high value points to a looser complex.

Data on five compounds can be found in patent US6033913A, “Detection of ligand Interaction with polymeric material” (New York University, priority 1997, dated 2000).

For test [1], the target named is T1, concanavalin A (Canavalia ensiformis, UniProt P02866). The experiment in a line: biochemical. In kind it is binding. Also noted: purchased Sigma, St. Louis, Mo. The conditions noted are these: for tension change on removal of divalent cations: buffer 1 exchanged for buffer 2 (without MnCl2 and CaCl2, both removed together). From the text: (§1) Referring again to FIGS. 4 and 5: With a sample strip S mounted between the tips of the arms 148, 168, and reference solution L flowing in the well 210, mechanochemical testing of the sample S is ready to begin. Testing itself consists of two stages. In the first (preparative) stage, the strip is stretched until a maximum spring constant of the strip is obtained, and then is allowed to relax under isometric conditions until a constant level of isometric tension is reached. Isometric condition herein means keeping a fixed distance between tips of the arms 148 and 146. In the second stage relaxed strip is brought into contact with ligand solution and ligand-induced changes of the isometric tension and spring constant are measured.
At the testing stage, ligand-induced changes in F and κ are measured after an exchange in the flow cell of reference solution for that containing ligands. These parameters by themselves can be used to detect binding. However, they also allow estimation of a practically important parameter: ligand-induced strain, εL=(L-L1)/L0, where L1 is the length of the sample in the ligand solution when no force is applied. This can also be calculated by the formula
Ligands are added at the moment indicated by arrows in FIGS. 12, 14, and 16.
A strip of concanavalin A, (Sigma, St. Louis, Mo.) was prepared as described in Example 1 for hexokinase, mounted on the arms 148, 146 and extended by 1.2% in buffer 1 (10 mM HEPES buffer, pH=7.5, containing 0.1 M NaCl and 0.1 mM MnCl2 and CaCl2 each). After relaxation solutions with 0.25 mM, 1.25 mM, 5 mM and 10 mM of methyl-α-D-mannopyranoside (MP) on the same buffer 1 were introduced into the well 210 at the moments indicated by arrows in the FIG. 14.

A further test relates to yeast hexokinase. The experiment in a line: Mechanochemical test of yeast hexokinase film with glucose (isometric tension and compliance). In kind it is binding.
Text: as §1
Spring constant is measured by applying small deformations to the strip with an amplitude AL much smaller than (L-L0). These deformations cause tension oscillations with amplitude of ΔF. […]
At the testing stage, ligand-induced changes in F and κ are measured after an exchange in the flow cell of reference solution for that containing ligands. […] This can also be calculated by the formula
A film of yeast hexokinase (Sigma Chemical Company, St. Louis, Mo.) was prepared. […] Changes in elasticity and isometric tension in the sample were measured at the moments indicated by arrows and changes in tension and in modulus resulted from such exchange of solutions were measured. […]

In test [2] the target is T1, concanavalin A. The following applies: as compared to MP; Biochem. Biophys. Acta, 165:398 (1968); cited from earlier work.

For the compound `O=C(O)CN(CCN(CC(=O)O)CC(=O)O)CC(=O)O` [EDTA], at concanavalin A [1], the “tension change on addition of EDTA” value is recorded as “reduces tension still more” and the “tension change on introduction of EDTA-free buffer 2 after EDTA” value is recorded as “does not affect tension”.

`[Ca+2].[Cl-].[Cl-]` [CaC12, CaCl2]: the “tension change on removal of divalent cations” value at concanavalin A [1] is recorded as “considerable decrease of tension”.

Take `CO[C@H]1O[C@H](CO)[C@@H](O)[C@H](O)[C@@H]1O` [MP, methyl-α-D-mannopyranoside]: the Kd at concanavalin A [1] is 300 µM. At concanavalin A [1] (10 mM MP in buffer 2), the “tension change on ligand addition without divalent cations” value was “reversible drop of tension by ΔF2, similar to the effect, ΔF1, in buffer 1”. Further, the “isometric tension change on ligand addition” value at concanavalin A [1] (buffer 1, 0.25, 1.25, 5 and 10 mM MP) is “reduce progressively the isometric tension”. Moreover, at concanavalin A [1] (return to buffer 1), the “reversibility of MP-induced decrease in tension” value is given as “completely reversible”.

In the case of `OC[C@H]1OC(O)[C@H](O)[C@@H](O)[C@@H]1O` (stereo partly drawn) [glucose], in the test on yeast hexokinase (Lineweaver-Burk plot, FIG. 13), the “inverse tension changes against inverse glucose concentration” value is “linear relationship”. For the same compound, in the test with yeast hexokinase (hexokinase film strip, varying glucose concentration, 10 mM HEPES, pH=7.5, 0.1 NaCl, extended 2.8%), the “changes in isometric tension and compliance” value was “large but reversible changes”. The “ability of binding concanavalin A compared to MP” value on concanavalin A [2] is “much lower ability of binding concanavalin A”. In addition, the “tension change on introduction of glucose” value on concanavalin A [1] (5 mM glucose) is “very small tension changes”.

For the compound `[Cl][Mn][Cl]` [MnCl2], the “tension change on removal of divalent cations” value at concanavalin A [1] is “considerable decrease of tension”.
